Data published in US10208060B2, “Inhibitors of HIF prolyl hydroxylase” (Merck Sharp & Dohme Corp., priority 2014, dated 2019).

Molecular target: human HIF-PHD2 (Homo sapiens (Human), UniProt Q9GZT9)
Test: HIF-PHD2 inhibition assay (hydroxylation of HIF-1α peptide, time resolved fluorescence)
Format: biochemical
Settings: FLAG-tagged full length PHD2; 0.2 μM 2-oxoglutarate, 0.5 μM HIF-1α peptide; 45 minutes at room temperature
Method: To each well of a 384-well plate, 1 μL of test compounds in DMSO (final concentration ranging from 0.3 nM to 10 uM) were added into 20 μl of assay buffer (50 mM Tris pH 7.4/0.01% Tween-20/0.1 mg/ml bovine serum albumin/10 μM ferrous sulfate/1 mM sodium ascorbate/20 μg/ml catalase) containing 0.15 μg/ml FLAG-tagged full length PHD2 expressed in and purified from baculovirus-infected Sf9 cells. […] Purif.

Chain of human HIF-PHD2 (Q9GZT9 whole entry): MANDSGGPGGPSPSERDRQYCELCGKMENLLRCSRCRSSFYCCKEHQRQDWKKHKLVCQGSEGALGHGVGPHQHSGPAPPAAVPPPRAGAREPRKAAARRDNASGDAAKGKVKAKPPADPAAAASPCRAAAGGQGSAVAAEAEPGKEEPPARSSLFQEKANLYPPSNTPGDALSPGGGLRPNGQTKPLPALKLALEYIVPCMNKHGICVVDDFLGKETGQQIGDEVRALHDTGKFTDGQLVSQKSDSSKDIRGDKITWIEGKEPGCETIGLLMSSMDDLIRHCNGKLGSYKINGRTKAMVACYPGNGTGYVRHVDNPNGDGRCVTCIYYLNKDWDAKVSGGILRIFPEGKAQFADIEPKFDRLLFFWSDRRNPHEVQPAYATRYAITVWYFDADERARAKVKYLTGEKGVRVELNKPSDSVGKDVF

| IC50 [nM] | SMILES |
| --- | --- |
| 8.8 | O=C(O)CNC(=O)c1c(O)c2c(n(-c3ccc(Br)cc3)c1=O)CSC2 [Example 11, 2-(1-(4-Bromophenyl)-4-hydroxy-2-oxo-1,2,5,7-tetrahydrothieno[3,4-b]pyridine-3-carboxamido)acetic acid] |
| 10 | O=C(O)CNC(=O)c1c(O)c2c(n(-c3ccc(-c4ccc(OC(F)(F)F)cc4)cc3)c1=O)CSC2 [Example 12] |
